Measurements as given in patent US11266711B2, “Oxytocin compositions and methods of use” (Elgan Pharma Ltd, priority 2018, dated 2022).
Where a name gives a salt, the structure may show the parent alone. Numbered stars: 1 amine (or outer) side, 2 acyl side, 3 side chain; on linkers, the order of the positions; unused ones are H or OH. Bridge positions count the residues as written; N and C are the ends. Peptide text beside a SMILES is read from it. X1 = O=C(CCC[*:2])[*:1]

Columns and labels:
[1] = cited from earlier work
oxytocin receptor [2] = target: T1, oxytocin receptor (Homo sapiens, UniProt P30559); details: cited from earlier work
oxytocin receptor [3] = target: T1, oxytocin receptor; details: cited from earlier work; remark: listed apart in the source
[4] = tested on: infants of mothers who took the drug during the first 42 days of pregnancy; details: mothers took the drug during the first 42 days of pregnancy; other drugs 4.6 per 100, no drugs 2.6 per 100; cited from earlier work
[5] = tested on: rat pups chronically exposed to morphine prenatally; assay: Naloxone-induced withdrawal in rat pups exposed to morphine prenatally (Example 1); type: in vivo, Sprague-Dawley rats
[6] = tested on: rat pups chronically exposed to morphine prenatally; type: in vivo, Sprague-Dawley rats; details: 2 mg/kg s.c. daily, first 10 postnatal days; survival measured for 15 days; vs saline (FIG. 2a)
[7] = tested on: rat pups chronically exposed to fluoxetine prenatally; assay: Survival and body weight, rat pups exposed to fluoxetine prenatally (Example 4); type: in vivo, Sprague-Dawley rats; details: 2 mg/kg s.c. daily
[8] = tested on: adolescent rats chronically exposed to fluoxetine prenatally; assay: Passive Avoidance Test, adolescent rats exposed to fluoxetine prenatally (Example 5); type: in vivo; details: 2 mg/kg s.c. daily, first 10 postnatal days; tested postnatal days 31-35; vs saline (FIG. 5)
[9] = tested on: adolescent rats chronically exposed to fluoxetine prenatally; assay: Locomotor activity, adolescent rats exposed to fluoxetine prenatally (Example 5); type: in vivo; details: 2 mg/kg s.c. daily, first 10 postnatal days; tested postnatal days 31-35; vs saline (data not shown)
[10] = tested on: adolescent rats chronically exposed to fluoxetine prenatally; assay: Light/Dark Box, adolescent rats exposed to fluoxetine prenatally (Example 5); type: in vivo; details: 2 mg/kg s.c. daily, first 10 postnatal days; tested postnatal days 31-35; vs saline (data not shown)
[11] = tested on: rat pups chronically exposed to morphine prenatally; type: in vivo, Sprague-Dawley rats; details: all three doses (0.3, 1, 2 mg/kg) s.c. daily, first 10 postnatal days; vs saline (FIG. 6a)
[12] = tested on: rat pups chronically exposed to morphine prenatally; assay: Locomotor activity during withdrawal, rats exposed to morphine prenatally (Example 7); type: in vivo
[13] = tested on: adolescent rats chronically exposed to morphine prenatally; assay: Light-Dark Box, adolescent rats exposed to morphine prenatally (Example 8); type: in vivo; details: 0.3 mg/kg s.c. daily, first 10 postnatal days; tested postnatal days 31-35; vs saline (FIG. 8a)
[14] = tested on: adolescent rats chronically exposed to morphine prenatally; assay: Passive Avoidance Test, adolescent rats exposed to morphine prenatally (Example 8); type: in vivo; details: 2 mg/kg s.c. daily, first 10 postnatal days; tested postnatal days 31-35; vs saline (FIG. 8b)
[15] = tested on: adolescent rats chronically exposed to morphine prenatally; assay: Automated Three-Chamber Test, adolescent rats exposed to morphine prenatally (Example 9); type: in vivo; details: first 10 postnatal days, tested postnatal days 31-35
Text: (§1) Briefly, the Three-Chamber Test assesses cognition in the form of social novelty and social memory; Social novelty occurs in three sessions within a three-chambered box with openings between the chambers. After habituation to the empty box, the test animal encounters a novel conspecific under one pencil cup and an empty pencil cup. The test animal then encounters the familiar conspecific and a second novel conspecific under the previously empty pencil cup; Animals that show intact social novelty behavior will show a preference to investigate the novel conspecific; Twenty-four hours later, social memory is tested by placing the test animal back in to the chamber with the two familiar conspecifics; Animals with intact social memory will spend an equal amount of time investigating the two familiar conspecifics. Duration of time spent investigating conspecifics is measured automatically using a SmartCage™.

[16] = tested on: adolescent rats chronically exposed to diazepam prenatally; assay: Automated Three-Chamber Test, adolescent rats exposed to diazepam prenatally (Example 13); type: in vivo; details: first 10 postnatal days, tested postnatal days 31-35
Text: as §1

healthy rats = assay: Survival and body weight during development in healthy rats (Example 14); type: in vivo, Sprague-Dawley rats; details: 0.3, 1 or 2 mg/kg daily, first 10 postnatal days; drug naive pups
[17] = tested on: rat pups chronically exposed to diazepam prenatally; details: 2 mg/kg s.c. daily, first 10 postnatal days
[18] = tested on: adolescent rats chronically exposed to diazepam prenatally; assay: Light-Dark Box, adolescent rats exposed to diazepam prenatally (Example 12); details: 1 mg/kg and 2 mg/kg s.c., first 10 postnatal days; tested postnatal days 31-35; vs saline (FIG. 12a)
[19] = tested on: adolescent rats chronically exposed to diazepam prenatally; assay: Passive Avoidance Test, adolescent rats exposed to diazepam prenatally (Example 12); details: all doses (0.3, 1, 2 mg/kg) s.c., first 10 postnatal days; tested postnatal days 31-35; vs saline (FIG. 12b)
Text: Briefly, in the Passive Avoidance Test an animal learns to avoid an unpleasant stimulus by inhibiting locomotion and exploration; On the training day, rats are placed in a brightly lit compartment of a test chamber; The animal quickly moves in to an adjacent dark compartment of the test chamber and receives an unavoidable mild foot shock; Twenty-four hours later during the test phase, the animals are again placed in to the light compartment and the latency to re-enter the dark compartment is measured. Latency to enter a compartment is automatically measured using a SmartCage™.

[20] = tested on: rat pups chronically exposed to diazepam prenatally; assay: Locomotor activity during withdrawal, rats exposed to diazepam prenatally (Example 11)
Description: Briefly, locomotor activity is measured by placing an animal in to a small standardized test chamber for a five-minute period. Distance travelled, and time spent active is measured automatically using a SmartCage™.

[21] = tested on: rat pups chronically exposed to diazepam prenatally; assay: Survival and body weight, three oxytocin doses, rat pups exposed to diazepam prenatally (Example 10); details: first 10 postnatal days
[22] = 1 or 2 mg/kg s.c. daily, vs saline (FIG. 7a)

T1 sequence (P30559 whole entry, species assumed): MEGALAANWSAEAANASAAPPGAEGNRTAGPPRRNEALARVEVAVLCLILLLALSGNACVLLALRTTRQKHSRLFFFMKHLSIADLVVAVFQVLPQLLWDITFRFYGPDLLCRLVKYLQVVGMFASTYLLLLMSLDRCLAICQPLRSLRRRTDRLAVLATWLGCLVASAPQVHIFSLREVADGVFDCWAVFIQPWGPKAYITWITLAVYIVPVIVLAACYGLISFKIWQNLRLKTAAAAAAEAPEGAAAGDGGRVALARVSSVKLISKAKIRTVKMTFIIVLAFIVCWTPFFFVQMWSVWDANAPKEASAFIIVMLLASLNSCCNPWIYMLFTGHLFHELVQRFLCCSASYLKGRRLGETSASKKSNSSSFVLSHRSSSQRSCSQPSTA

Cc1nnc2n1-c1ccc(Cl)cc1C(c1ccccc1)=NC2 [Alprazolam]
half-life ([1]; in vivo): ten to 24

O=C1Nc2ccc(Cl)cc2C(c2ccccc2Cl)=NC1O (centres unmarked) [Lorazepam]
half-life in adults ([1]; adults): about 12 hours

CC[C@H](C)[C@@H]1NC(=O)[C@H](Cc2ccc(OC)cc2)NC(=O)CCCSC[C@@H](C(=O)N2CCC[C@H]2C(=O)N[C@@H](CC(C)C)C(=O)NCC(N)=O)NC(=O)[C@H](CC(N)=O)NC(=O)[C@H](CCC(N)=O)NC1=O [carbetocin, 1-Butanoic acid-2-(O-methyl-L-tyrosine)-1-carbaoxytocin] (Y(Me)IQNCPLG-NH2; linker N-5 via X1)
affinity of the oxytocin receptor, compared with oxytocin (oxytocin receptor [2]): equal affinity
biological effect relative to endogenous or exogenous oxytocin (oxytocin receptor [3]): ~50%

CNC1=Nc2ccc(Cl)cc2C(c2ccccc2)=[N+]([O-])C1 [chlordiazepoxide, Chlordiazepoxide hydrochloride]
severe congenital anomalies among infants [4]: 11.4 per 100

CC[C@H](C)[C@@H]1NC(=O)[C@H](Cc2ccc(O)cc2)NC(=O)[C@@H](N)CSSC[C@@H](C(=O)N2CCC[C@H]2C(=O)N[C@@H](CC(C)C)C(=O)NCC(N)=O)NC(=O)[C@H](CC(N)=O)NC(=O)[C@H](CCC(N)=O)NC1=O [oxytocin]
locomotor activity ([5]; single dose 2 mg/kg s.c. after naloxone, postnatal day one, up to 30 minutes post-naloxone, vs saline (FIG. 1a)): clear statistically significant reduction
scores of rolling behavior ([5]; single dose 2 mg/kg s.c., up to 45 minutes, vs saline (FIG. 1b)): numerical reduction
scores of curling behavior ([5]; single dose 2 mg/kg s.c., up to 45 minutes, vs saline (FIG. 1c)): numerical reduction
percentage survival rates at postnatal day 10 ([5]; single dose 2 mg/kg s.c., vs saline (FIG. 1d)): improved percentage survival rates
percentage survival rates [6]: clear statistically significant improvement
percentage survival rates ([7]; first 10 postnatal days, survival measured for 15 days, vs saline (FIG. 4a)): statistical trend towards improvement
body weight at postnatal day 36 ([7]; first 10 postnatal days, vs saline (FIG. 4c)): clear statistically significant reduction
body weights during the first 10 postnatal days ([7]; vs saline (FIG. 4b)): comparable
learning and memory function (latency to enter chamber paired with foot shock) [8]: clear statistically significant improvement
locomotor activity [9]: No meaningful differences
anxiety-like behavior [10]: No meaningful differences
percentage survival rates for the first 30 postnatal days [11]: clear statistically significant improvement
locomotor activity at postnatal day 30 ([12]; 0.3, 1 or 2 mg/kg s.c. daily, first 10 postnatal days, between treatment groups (FIG. 7b)): No meaningful differences
locomotor activity on postnatal day 6 [12, 22]: clear statistically significant increase
locomotor activity on postnatal days 3 or 9 [12, 22]: not on postnatal days 3 or 9
anxiety-like behavior (time in the light chamber) [13]: clear statistically significant decrease
learning and memory function (latency to enter chamber paired with foot shock) [14]: numerical improvement
social memory function (time investigating a familiar conspecific) ([15]; 2 mg/kg s.c. daily, vs saline (FIG. 9b)): statistical trend towards improved social memory function
social novelty behavior (time investigating a novel conspecific) ([15]; all doses (0.3, 1, 2 mg/kg) s.c. daily, vs saline (FIG. 9a)): trend towards increased social novelty behavior
social memory function (time investigating a familiar conspecific) ([16]; 2 mg/kg s.c. daily, vs saline (FIG. 13b)): statistical trend toward improved social memory function
social novelty behavior (time investigating a novel animal) ([16]; 1 and 2 mg/kg s.c. daily, vs saline (FIG. 13a)): clear statistically significant increase
survival for the first 30 postnatal days (healthy rats): survived for the first 30 postnatal days
percentage survival rates ([17]; survival measured for 15 days, vs saline (FIG. 3a)): clear statistically significant improvement
body weight, various time points of the dosing period ([17]; vs saline (FIG. 3b)): clear statistically significant increase
body weight at postnatal day 31 ([17]; vs saline (FIG. 3c)): clear statistically significant decrease
anxiety-like behavior (time in the light chamber) [18]: clear statistically significant reduction
learning and memory function (latency to enter chamber paired with foot shock) [19]: clear statistically significant improvement
locomotor activity on postnatal day 6 ([20]; 0.3 mg/kg and 2 mg/kg s.c. daily, vs saline (FIG. 11a)): clear statistically significant decrease
locomotor activity on postnatal day 30 ([20]; 2 mg/kg s.c. daily, first 10 postnatal days, vs saline (FIG. 11b)): clear statistically significant decrease
locomotor activity on postnatal day 9 ([20]; 2 mg/kg s.c. daily, vs saline (FIG. 11a)): clear statistically significant decrease
locomotor activity on postnatal days 3 and 6 ([20]; all three doses (0.3, 1, 2 mg/kg) s.c. daily, vs saline): clear statistically significant decrease
percentage survival rates for the first 30 postnatal days ([21]; 2 mg/kg s.c. daily, vs saline (FIG. 10a)): clear statistically significant improvement
body weight throughout the first 30 postnatal days ([21]; all three doses (0.3, 1, 2 mg/kg) s.c. daily, vs saline (FIG. 10b)): clear statistically significant decrease
